Measurements reported in patent US8367659B2, “Oxazinyl isoflavonoid compounds, medicaments and use” (Marshall Edwards, Inc., priority 2007, dated 2013).
Blank lines part the entries; values can stand above or below the compound they belong to.

Tests used:
[1] = system: human umbilical vein smooth muscle cells (HUVSMC); test: Proliferation of human umbilical vein smooth muscle cells (MTT); assay type: cell-based; details: 10 μM; 10% FCS, 5 days; FIG. 8
Procedure: The effect of test compounds on human umbilical vein smooth muscle cells (HUVSMC) was examined. Cells were seeded into 96 well plates at a low seeding rate of 1.6×10^3 cells per well, and allowed to attach for 24 hours. The cells were then washed twice with medium without FCS and incubated in medium without FCS for 20 hours to serum starve them. Analogue was prepared in medium without FCS at 20 μM and added to the plates and incubated for one hour. Final analogue concentration was therefore 10 μM. The cells were then stimulated by adding medium +20% FCS, to give a final FCS concentration of 10%. The cells were incubated until the control cells i.e. those with FCS and no compound, were just confluent (5 days). An MTT assay was performed, and difference in absorbance in analogue treated cells from the control was calculated using the formula: test/control*100−100. Results
The effect of test compounds on human umbilical vein smooth muscle cells (HUVSMC), was examined. Cells, tissue explants from a neonate (HRI—passage 2), were seeded into 96 well plates at 1×10^3 cells per well, and allowed to attach for 24 hours. They were then washed twice and incubated in medium without foetal calf serum (FCS) for 24-48 hours to serum-starve them. Test compounds were prepared in medium without FCS and added to the plates and incubated for one hour. Medium with FCS was added to give a final concentration of 10% and the plates incubated for 4-5 days until the controls were just confluent.

[2] = system: TXB2 synthesis in RAW 264.7 murine macrophages; test: LPS-induced TXB2 synthesis in RAW 264.7 murine macrophages; assay type: cell-based, mouse; details: 10 μM; relative to vehicle alone; FIG. 4
Procedure: (§1) The mouse macrophage cell line RAW 264.7 was cultured in DMEM supplemented with foetal calf serum (FCS), […] glutamine and 50 U/ml penicillin/streptomycin. Cells were treated with either test compound (in 0.025% DMSO) or vehicle alone, and added one hour before 50 ng/ml LPS. After incubation for 24 h, culture media was collected for PGE2 or TXB2 measurement by ELISA (Cayman Chemical), and TNFα measurement using an ELISA (Becton Dickinson). Test compounds were examined a concentration of 10 μM. […] Consequently, to assess the effect of test compounds on various analytes, cell viability was taken into consideration with the use of the formula: Actual effect of test compound=measured effect−(effect on cell viability×measured effect)

[3] = Free radical scavenging with DPPH; details: DPPH, 20 minutes, absorbance 517 nm; Table 4; read-out: Free radical scavenging ability EC50
Procedure: The antioxidant (free radical trapping) activity of test compounds was assessed using the stable free radical compound 2,2-diphenyl-1-picrylhydrazyl (DPPH). A stock solution of DPPH was prepared at a concentration of […] in ethanol and mixed for 10 minutes prior to use. Test compounds at a concentration of 100 μM were reacted with DPPH for, 20 minutes, alter which time the absorbance at 517 nm was determined. Initial screening of was done at 100 μM. The change in absorbance at 517 nm was compared to a reagent blank (DPPH with ethanol alone). […] The IC50 values were estimated as the concentration of test compound that caused a 0.6 change in absorbance (with 1.2 absorbance units representing total scavenging of the DPPH radical).
The antioxidant (free radical trapping) activity of test compounds was assessed using the stable free radical compound 2,2-diphenyl-1-picrylhydrazyl (DPPH). A stock solution of DPPH was prepared […] in ethanol and mixed for 10 minutes prior to use. Initial screening of test compound at a concentration of 100 μM was reacted with DPPH for 20 minutes, after which time the absorbance at 517 nm was determined. The change in absorbance was compared to a reagent blank (DPPH with ethanol alone). […] The IC50 value was estimated as the concentration of test compound that causes a 0.6 change in absorbance (with 1.2 absorbance units representing total scavenging of the DPPH radical).

[4] = system: PGE2 synthesis in RAW 264.7 murine macrophages; test: LPS-induced PGE2 synthesis in RAW 264.7 murine macrophages; assay type: cell-based, mouse; details: 10 μM; relative to vehicle alone; FIG. 3
Procedure: as §1

[5] = target: T1, GAL4-PPARγ fusion protein (Homo sapiens, UniProt P37231); test: PPARγ activity in transfected HEK293 cells (beta-lactamase reporter); assay type: cell-based; details: FIG. 13: 1 μM
T1 construct: host or cells: HEK293 (human embryonic kidney), stably transfected
Procedure: Human HEK293 cells, stably transfected with the PPARγ ligand binding domain fused with the DNA binding domain of the GAL4 protein (GAL4-PPARγ fusion protein), produce beta-lactamase when incubated with PPARγ ligands. Transfected human kidney embryonic cells (Invitrogen Inc., Carlsbad, Calif.) were seeded onto matrigel in 96-well plates and allowed to attach overnight. The following day, vehicle alone (DMSO) or test compound at 1, 5 and 10 μM was added at varying concentrations to cells and incubated for 16-18 hours. Cells were then loaded with a FRET-based fluorescent substrate to assess beta-lactamase activity. Cells were protected from light, and incubated at room temperature for 2 h. Plates were read on a fluorescence plate reader with an excitation wavelength of 409 nm and emission wavelengths of 460 nm and 530 nm. Results were expressed as a ratio of these two wavelengths after the background (cell-free control wells) had been subtracted. PPARγ activity was thus determined by measuring beta-lactamase activity as assessed by a fluorescent product to substrate ratio.

[6] = system: NO synthesis in RAW 264.7 murine macrophages; test: LPS-induced NO synthesis in RAW 264.7 murine macrophages (Griess); assay type: cell-based, mouse; details: 10 μM; relative to vehicle alone; FIG. 6
Procedure: as §1, with “Dickinson). Nitrite concentration is a quantitative indicator of NO production and was determined by the Griess Reaction. Briefly, 100 μL of Griess reagent was added to 50 μL of each supernatant in duplicate. The absorbance at 550 nm was measured (Molecular Devices, SpectraMax 250 microplate spectrophotometer, CA, USA), and nitrite concentrations were determined against a standard curve of sodium nitrite. The percentage nitrite inhibition was calculated as: [100−(nitrite concentration of sample/nitrite of vehicle control LPS cells)×100]. Results” for “Dickinson).”

HPAC = test: Anti-cancer activity, HPAC pancreatic cancer cells (MTT); assay type: cell-based; details: Homo sapiens, 120 h, 5 days
MM200 = test: Anti-cancer activity, MM200 melanoma cells (MTT); assay type: cell-based; details: 120 h; 5 days, MTT
cancer cell lines = test: Anti-cancer activity, cancer cell lines tested as a group (MTT); assay type: cell-based
CP70 = test: Anti-cancer activity, CP70 ovarian cancer cells (MTT); assay type: cell-based; details: 120 h, 5 days

T1 sequence (P37231 238-503 limits assumed): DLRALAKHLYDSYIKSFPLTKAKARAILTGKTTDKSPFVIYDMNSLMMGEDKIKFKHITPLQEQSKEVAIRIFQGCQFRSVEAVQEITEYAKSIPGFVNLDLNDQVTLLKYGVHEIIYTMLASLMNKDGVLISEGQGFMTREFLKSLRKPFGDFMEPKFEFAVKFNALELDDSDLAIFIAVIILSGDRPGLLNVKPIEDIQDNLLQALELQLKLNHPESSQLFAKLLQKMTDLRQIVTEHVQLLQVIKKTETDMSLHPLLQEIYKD
T1 sequence (P04386 1-147 partner limits assumed): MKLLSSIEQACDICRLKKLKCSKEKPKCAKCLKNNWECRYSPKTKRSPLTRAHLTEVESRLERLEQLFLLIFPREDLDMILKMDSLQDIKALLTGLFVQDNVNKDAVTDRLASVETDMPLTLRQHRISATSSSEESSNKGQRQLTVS

EC50 [3]: 16 µM
Compound: Oc1ccc(C2=Cc3cc4c(cc3OC2)OCN(c2ccc(O)cc2)C4)cc1 [Compound 8, 4,4′-(Chromeno[6,7-e][1,3]oxazine-3,7 (2H,4H,8H)-diyl)diphenol]
effect on proliferation of HUVSMCs induced by FCS [1]: significantly inhibited the proliferation
mean change of LPS-induced TXB2 synthesis [2]: greatest inhibition

Compound: COc1ccc(C2=Cc3cc4c(cc3OC2)OCN(c2ccccc2)C4)cc1OC [Compound 12, 7-(3,4-Dimethoxyphenyl)-3-phenyl-2,3,4,8-tetrahydrochromeno[6,7-e][1,3]oxazine]
mean change of LPS-induced PGE2 synthesis [4]: greatest inhibition

EC50 [3]: 29 µM
PPARγ activation, increase in beta-lactamase activity over media only control [5]: PPARγ agonist activity
Compound: Cc1ccc(N2COc3cc4c(cc3C2)C=C(c2ccc(O)cc2)CO4)cc1 [Compound 18, 4-(3-p-Tolyl-2,3,4,8-tetrahydrochromeno[6,7-e][1,3]oxazin-7-yl)phenol]
effect on proliferation of HUVSMCs induced by FCS [1]: significantly inhibited the proliferation

Compound: CCCN1COc2c(cc3c(c2C)OCC(c2ccc(OC)c(OC)c2)=C3)C1 [Compound 14, 7-(3,4-Dimethoxyphenyl)-10-methyl-3-propyl-2,3,4,8-tetrahydrochromeno[6,7-e][1,3]oxazine]
mean change of LPS-induced PGE2 synthesis [4]: greatest inhibition
mean change of LPS-induced TXB2 synthesis [2]: greatest inhibition
mean change of LPS-induced NO synthesis [6]: greatest inhibition

EC50 [3]: 41 µM
Compound: COc1ccc(C2=Cc3cc4c(c(C)c3OC2)OCN(c2ccc(C)cc2)C4)cc1OC [Compound 19, 7-(3,4-Dimethoxyphenyl)-10-methyl-3-p-tolyl-2,3,4,8-tetrahydrochromeno[6,7-e][1,3]oxazine]
effect on proliferation of HUVSMCs induced by FCS [1]: significantly inhibited the proliferation
mean change of LPS-induced NO synthesis [6]: greatest inhibition

IC50 (HPAC): 3.88 µM
IC50 (MM200): 1.8 µM
EC50 [3]: 22 µM
IC50 (cancer cell lines; read-out: most potent activity against the respective cell lines tested): 1 to 5 µM
Compound: COCCCN1COc2cc3c(cc2C1)C=C(c1ccc(O)cc1)CO3 [Compound 16, 4-(3-(3-Methoxypropyl)-2,3,4,8-tetrahydrochromeno[6,7-e][1,3]oxazin-7-yl)phenol]

EC50 [3]: 44 µM
Compound: N#Cc1ccc(N2COc3cc4c(cc3C2)C=C(c2cccc(O)c2)CO4)cc1 [Compound 21, 4-(7-(3-Hydroxyphenyl)chromeno[6,7-e][1,3]oxazin-3(2H,4H,8H)-yl)benzonitrile]

EC50 [3]: 36 µM
Compound: COc1ccc(CN2COc3cc4c(cc3C2)C=C(c2ccc(OC)c(OC)c2)CO4)cc1 [Compound 9, 7-(3,4-Dimethoxyphenyl)-3-(4-methoxybenzyl)-2,3,4,8-tetrahydrochromeno[6,7-e][1,3]oxazine]
mean change of LPS-induced PGE2 synthesis [4]: greatest inhibition
mean change of LPS-induced TXB2 synthesis [2]: greatest inhibition
toxicity against cancer cells (cancer cell lines; where tested): moderate toxicity

IC50 (HPAC): 7.89 µM
IC50 (MM200): 9.4 ± 1.5 µM
EC50 [3]: 22.5 µM
IC50 (CP70): 4.41 µM
Compound: Oc1ccc(C2=Cc3cc4c(cc3OC2)OCN(Cc2ccc(Cl)cc2)C4)cc1 [Compound 15, 4-(3-(4-Chlorobenzyl)-2,3,4,8-tetrahydrochromeno[6,7-e][1,3]oxazin-7-yl)phenol]
activity against CP70, HPAC and MM200 cell lines (cancer cell lines; CP70, HPAC and MM200): active

EC50 [3]: 27 µM
PPARγ activation, increase in beta-lactamase activity over media only control [5]: PPARγ agonist activity
Compound: O=[N+]([O-])c1cccc(N2COc3cc4c(cc3C2)C=C(c2ccc(O)cc2)CO4)c1 [Compound 23, 4-(3-(3-Nitrophenyl)-2,3,4,8-tetrahydrochromeno[6,7-e][1,3]oxazin-7-yl)phenol]
mean change of LPS-induced PGE2 synthesis [4]: greatest inhibition
mean change of LPS-induced TXB2 synthesis [2]: greatest inhibition
mean change of LPS-induced NO synthesis [6]: greatest inhibition

EC50 [3]: 38 µM
PPARγ activation, increase in beta-lactamase activity over media only control [5]: PPARγ agonist activity
Compound: Cc1ccc(N2COc3cc4c(cc3C2)C=C(c2cccc(O)c2)CO4)cc1 [Compound 20, 3-(3-p-Tolyl-2,3,4,8-tetrahydrochromeno[6,7-e][1,3]oxazin-7-yl)phenol]
effect on proliferation of HUVSMCs induced by FCS [1]: significantly inhibited the proliferation

EC50 [3]: 26 µM
Compound: Cc1c2c(cc3c1OCN(c1ccc(O)cc1)C3)C=C(c1cccc(O)c1)CO2 [Compound 26, 3,4′-(10-Methyl-chromeno[6,7-e][1,3]oxazine-3,7(2H,4H,8H)-diyl)diphenol]

PPARγ activation, increase in beta-lactamase activity over media only control [5]: PPARγ agonist activity
Compound: CC(C)(C)c1ccc(CN2COc3cc4c(cc3C2)C=C(c2ccc(O)cc2)CO4)cc1 [Compound 29, 4-(3-(4-tert-Butylbenzyl)-2,3,4,8-tetrahydrochromeno[6,7-e][1,3]oxazin-7-yl)phenol]

EC50 [3]: 23 µM
Compound: CCCN1COc2c(cc3c(c2Br)OCC(c2ccc(O)cc2)=C3)C1 [Compound 25, 4-(10-Bromo-3-propyl-2,3,4,8-tetrahydrochromeno[6,7-e][1,3]oxazin-7-yl)phenol]

EC50 [3]: 41 µM
Compound: COc1ccc(C2=Cc3cc4c(c(C)c3OC2)OCN(Cc2ccccc2)C4)cc1OC [Compound 13, 3-Benzyl-7-(3,4-dimethoxyphenyl)-10-methyl-2,3,4,8-tetrahydrochromeno[6,7-e][1,3]oxazine]
